Laboratory results: ChEMBL document CHEMBL1154926, “Cyanolide A, a glycosidic macrolide with potent Molluscicidal activity from the Papua New Guinea cyanobacterium Lyngbya bouillonii” (J Nat Prod, 2010)

Columns and labels:
Biomphalaria glabrata = assay: Molluscicidal activity against Biomphalaria glabrata after 24 hrs; type: functional
N2a = assay: Cytotoxicity against mouse Neuro2a cells at 35 uM; type: functional, cell-based
[1] = Toxicity in brine shrimp; type: organism-based; settings: artemia, in vivo
NCI-H460 = assay: Cytotoxicity against human H460 cells at 35 uM; type: functional, cell-based

For `CC[C@@H]1C[C@@H]2C[C@H](O[C@@H]3OC[C@@H](OC)[C@H](OC)[C@H]3OC)C(C)(C)[C@H](CC(=O)O[C@H](CC)C[C@@H]3C[C@H](O[C@@H]4OC[C@@H](OC)[C@H](OC)[C@H]4OC)C(C)(C)[C@H](CC(=O)O1)O3)O2` [CYANOLIDE A], which LC50 (Biomphalaria glabrata) is on record?
Its LC50 is 1.2 µM.

What about the Activity (N2a) of the same compound?
The Activity was “Not toxic”.

What about the LC50 [1] of the same compound?
Its LC50 is 10.8 µM.

What about the Activity (NCI-H460) of the same compound?
Its Activity is “Not toxic”.
